In general, IC50 refers to the point on the concentration scale where inhibition reaches its midpoint.

Active and inactive are the calls of the source.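 Rule for the calls: active = compounds blocking the PEG3 reporter with IC50 up to 10 µM at either incubation, yet sparing the GAPDH control reporter; inactive = the rest.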

This experiment can be described thus: GAPDH and PEG-3 promoter luciferase suppression – cell-based, luminescence, set 2, counter-screen for PEG-3 promoter inhibitor project, dose response (AID 651549). The note with it: HeLa PEG-Prom-luciferase or GAPDH-reporter, 6/24 h. A general note: The purpose of a counterscreen is to sort out artefacts and off-target activity.

For `CC(=O)OC1CC2(O)C3CCC4CC(O)CCC4(C)C3CCC2(C)C1C1=CC(=O)OC1` (stereo not drawn), the IC50 (GAPDH, run 1, 6 h) is 0.416 µM; the concentration for half-maximal inhibition (IC50) (GAPDH, run 1, 24 h) was 0.458 µM; the IC50 (PEG-3, run 1, 6 h) was > 99 µM (inactive); the IC50 (PEG-3, run 1, 24 h) was 0.499 µM.
On the same counts, the results for `C=CCn1c(C)cc(C(=O)COc2ccc(C)nc2[N+](=O)[O-])c1C` are 8.44 µM, “inactive”, 9.65 µM and 3.38 µM.
For `CCc1ccn2cc(-c3ccc4c(c3)OCO4)nc2c1`, the IC50 is, setting by setting: (GAPDH, run 1, 6 h) 2.23 µM; (PEG-3, run 1, 6 h) 2.12 µM; (PEG-3, run 1, 24 h) 5.02 µM. Moreover, the IC50 entry (GAPDH, run 1, 24 h) was “inactive”.
On the same counts, the results for `CC1CCN(c2nc3ccc(C(=O)O)cc3s2)CC1` are 1.93 µM, 1.01 µM, 1.51 µM and 2.14 µM.
On the same counts, the results for `Cc1cc(C)cc(NS(=O)(=O)c2ccc3c(c2)c(=O)n(C)c(=O)n3C)c1` are “inactive”, > 99 µM (inactive), 4.62 µM and 1.85 µM.
In the case of `Cc1oc(-c2ccc3c(c2)OCCO3)cc1C(=O)O`, the IC50 is, setting by setting: (GAPDH, run 1, 6 h) 4.9 µM; (GAPDH, run 1, 24 h) 7.36 µM; (PEG-3, run 1, 6 h) 7.66 µM. Also, the IC50 entry (PEG-3, run 1, 24 h) was “inactive”.
On the same counts, the results for `O=C(O)c1ccc(Nc2nc3c(s2)CCCC3)cc1` are 8.49 µM, 9.1 µM, “inactive” and “inactive”.
On the same counts, the results for `Cc1cc(C)c(C)c(S(=O)(=O)N2CCN(C(=O)c3cc(=O)[nH]c4ccccc34)CC2)c1C` are “inactive”, 4.79 µM, > 99 µM (inactive) and “inactive”.
On the same counts, the results for `CCC(c1nnnn1-c1ccc2c(c1)OCCO2)N1CCC(n2c(=O)[nH]c3ccccc32)CC1` (stereo not drawn) are “inactive”, 4.01 µM, “inactive” and “inactive”.
On to `CCCCCCCn1c(=N)n(CC(=O)c2ccco2)c2ccccc21`, for which the IC50 entry is, setting by setting: (GAPDH, run 1, 6 h) “inactive”; (GAPDH, run 1, 24 h) “inactive”; (PEG-3, run 1, 6 h) “inactive”; (PEG-3, run 1, 24 h) “inactive”.
As for `NC(=O)c1cc([N+](=O)[O-])ccc1NCc1ccc(N)cc1`, the IC50 result reads like this: (GAPDH, run 1, 6 h) “inactive”; (GAPDH, run 1, 24 h) “inactive”; (PEG-3, run 1, 6 h) “inactive”. Moreover, under “PEG-3, run 1, 24 h”, the IC50 was 7.33 µM.
As for `COc1ccc(CC2C(=O)NC(C)C(=O)N(C)C3C(=O)N(C)C(Cc4ccc(O)c(c4)Oc4ccc(cc4)C3O)C(=O)NC(C)C(=O)NC(C)C(=O)N2C)cc1` (stereo not drawn), the IC50 reads like this: (GAPDH, run 1, 6 h) under 1 µM; (GAPDH, run 1, 24 h) under 1 µM; (PEG-3, run 1, 6 h) under 1 µM; (PEG-3, run 1, 24 h) under 1 µM.
With `O=C(O)CSCC(=O)Nc1ccc(C2CCCCC2)cc1`, the 50% inhibitory concentration (IC50) by setting is: (GAPDH, run 1, 6 h) 5.37 µM; (GAPDH, run 1, 24 h) 0.307 µM; (PEG-3, run 1, 6 h) 5.56 µM; (PEG-3, run 1, 24 h) 4.57 µM.
On the same counts, the results for `CS(=O)(=O)c1ccc(-c2sc3ccccc3c2C#CCCO)cc1` are “inactive”, “inactive”, “inactive” and “inactive”.
For `Cc1nc2c(-c3ccc(Cl)cc3)c(C)[nH]n2c(=O)c1Cc1ccccc1`, in that order: “inactive”, 1.74 µM, > 99 µM (inactive) and 2.21 µM.
For the molecule `Cc1cccc(NC(=O)c2nc(S(=O)(=O)Cc3ccccc3)ncc2Cl)c1`, the IC50 (GAPDH, run 1, 6 h) is 8.24 µM and the IC50 (GAPDH, run 1, 24 h) was 7.13 µM. Also, the IC50 result is, setting by setting: (PEG-3, run 1, 6 h) “inactive”; (PEG-3, run 1, 24 h) “inactive”.
`O=C(Nc1ccccc1C(=O)Nc1nnc(C(F)(F)F)s1)c1ccccc1`: the concentration for half-maximal inhibition (IC50) reads like this: (GAPDH, run 1, 6 h) 1.41 µM; (GAPDH, run 1, 24 h) 7.02 µM; (PEG-3, run 1, 6 h) > 99 µM (inactive). In addition, for the setting “PEG-3, run 1, 24 h”, the IC50 result is “inactive”.
For `COCCn1c(C)cc(C(=O)COc2ccc(C)nc2[N+](=O)[O-])c1C`, in that order: “inactive”, “inactive”, “inactive” and “inactive”.
On the same counts, the results for `CCOC(=O)c1ccc2nc(Nc3nc4ccc(F)cc4s3)sc2c1` are > 99 µM (inactive), > 99 µM (inactive), 0.31 µM and under 1 µM.
For `CN1CCC2(CC1)N=C(c1ccc(F)cc1)C(=S)N2C(=O)c1ccc(C(C)(C)C)cc1`, in that order: “inactive”, “inactive”, “inactive” and “inactive”.
On to `COC(=O)c1ccc2nc(Nc3nc4ccc(F)cc4s3)sc2c1`, for which the IC50 is, setting by setting: (GAPDH, run 1, 6 h) under 1 µM; (GAPDH, run 1, 24 h) 0.533 µM; (PEG-3, run 1, 6 h) under 1 µM; (PEG-3, run 1, 24 h) 2.74 µM.
In the case of `Cc1cc2cc(CCNC(=O)C(=O)c3c[nH]c4ccccc34)c(=O)[nH]c2cc1C`, where the note is “GAPDH, run 1, 6 h”, the IC50 result is “inactive”. Further, the IC50 (GAPDH, run 1, 24 h) is 4.9 µM; the IC50 (PEG-3, run 1, 6 h) was > 99 µM (inactive); the IC50 (PEG-3, run 1, 24 h) was 7.83 µM.
Regarding `CS(=O)(=O)c1ccc(-c2cn3cc(C(=O)O)ccc3n2)cc1`, the IC50 result by setting is: (GAPDH, run 1, 6 h) “inactive”; (PEG-3, run 1, 6 h) “inactive”; (PEG-3, run 1, 24 h) “inactive”. Moreover, the IC50 (GAPDH, run 1, 24 h) was 3.4 µM.
As for `O=C(NCC1CCCO1)C(c1ccc(F)cc1)N(C(=O)Cn1nnc(-c2ccc(F)cc2)n1)c1cccc(O)c1` (stereo not drawn), the IC50 result was “inactive” (GAPDH, run 1, 6 h); “inactive” (GAPDH, run 1, 24 h); “inactive” (PEG-3, run 1, 24 h). In addition, where the note is “PEG-3, run 1, 6 h”, the IC50 was > 99 µM (inactive).
As to `COc1ccc(-n2cc(-c3ccccc3)c3c(N4CCOCC4)ncnc32)cc1`, the IC50 entry (GAPDH, run 1, 6 h) is “inactive”; the IC50 result (PEG-3, run 1, 6 h) is “inactive”; the IC50 result (PEG-3, run 1, 24 h) is “inactive”. Also, under “GAPDH, run 1, 24 h”, the IC50 was 2.98 µM.
In the case of `Cc1c(CN2CCC(CO)(CCOc3ccccc3)CC2)[nH]c2c(Cl)cccc12`, the IC50 entry runs as follows: (GAPDH, run 1, 6 h) “inactive”; (GAPDH, run 1, 24 h) “inactive”; (PEG-3, run 1, 6 h) “inactive”; (PEG-3, run 1, 24 h) “inactive”.
Turning to `CCCn1nc(C(=O)Nc2nc(-c3ccccn3)cs2)c2ccccc2c1=O`, the IC50 result is “inactive” (GAPDH, run 1, 6 h) and “inactive” (GAPDH, run 1, 24 h). In addition, the IC50 reads like this: (PEG-3, run 1, 6 h) > 99 µM (inactive); (PEG-3, run 1, 24 h) > 99 µM (inactive).
Regarding `COc1ccc(C(=O)Nc2ccc(C)cn2)c(OC)c1`, the half-inhibitory concentration (IC50) runs as follows: (GAPDH, run 1, 6 h) 1.07 µM; (GAPDH, run 1, 24 h) 3.41 µM; (PEG-3, run 1, 6 h) 3.63 µM; (PEG-3, run 1, 24 h) 4.17 µM.
For `Cn1c(Cl)cnc1C1CC(=O)c2cc(Cl)ccc2O1` (stereo not drawn), in that order: “inactive”, 9.11 µM, “inactive” and “inactive”.
On the same counts, the results for `COc1ccc2[nH]c(=O)c(CN(Cc3cccnc3)S(=O)(=O)c3ccccc3F)cc2c1` are “inactive”, 5.38 µM, > 99 µM (inactive) and “inactive”.
In the case of `CC(C)(C)c1ccc(Oc2ccc(N)cc2)cc1`, the half-inhibitory concentration (IC50) by setting is: (GAPDH, run 1, 6 h) 6.12 µM; (GAPDH, run 1, 24 h) 5.35 µM; (PEG-3, run 1, 6 h) 6.09 µM; (PEG-3, run 1, 24 h) 6.51 µM.
On the same counts, the results for `COc1cc2nc(CN3CC=C(c4ccccc4)CC3)[nH]c(=O)c2cc1OC` are “inactive”, “inactive”, “inactive” and “inactive”.
For `Cc1cc(C(=O)Nc2cccc(C(=O)O)c2)oc1C`, in that order: 7.74 µM, “inactive”, “inactive” and “inactive”.
For `Nc1ncn([C@@H]2O[C@H](CO)[C@@H](O)[C@H]2O)c(=O)n1`, in that order: 2.73 µM, 0.557 µM, “inactive” and “inactive”.
As for `CCSc1nc2ccccc2n1C(=O)/C=C\c1ccc(OC)c(OC)c1`, the IC50 (GAPDH, run 1, 6 h) was 6.8 µM; the half-maximal inhibitory concentration (IC50) (GAPDH, run 1, 24 h) was 5.39 µM; the IC50 (PEG-3, run 1, 6 h) was 6.76 µM; the IC50 (PEG-3, run 1, 24 h) is 6.91 µM.
Turning to `Cc1cccc(-n2cc(-c3ccccc3)c3c(N4CCOCC4)ncnc32)c1`, the IC50 reads like this: (GAPDH, run 1, 6 h) > 99 µM (inactive); (PEG-3, run 1, 6 h) > 99 µM (inactive). Further, the IC50 entry was “inactive” (GAPDH, run 1, 24 h) and “inactive” (PEG-3, run 1, 24 h).
Regarding `O=C(O)c1ccc2nc(-c3ccccc3)sc2c1`, the concentration for half-maximal inhibition (IC50) was 6.04 µM (GAPDH, run 1, 6 h); 0.72 µM (GAPDH, run 1, 24 h); 7.05 µM (PEG-3, run 1, 6 h); 7.03 µM (PEG-3, run 1, 24 h).
On the same counts, the results for `CCn1cc(C(=O)NCc2ccco2)c(=O)c2cc(S(=O)(=O)N3CC(C)CC(C)C3)ccc21` (stereo not drawn) are “inactive”, 2.7 µM, > 99 µM (inactive) and 2.63 µM.
On the same counts, the results for `O=C(COc1ccc2c(c1)CCC2)Nc1ccccn1` are 2.7 µM, 1.82 µM, 2.41 µM and 5.02 µM.
On the same counts, the results for `CCC1(O)C(=O)OCc2c1cc1n(c2=O)Cc2cc3cc(O)ccc3nc2-1` (stereo not drawn) are 3.1 µM, 4.36 µM, 3.1 µM and 9.31 µM.
Consider `C[C@]12CC[C@H]3C(CCC4(O)CC(O)CC[C@]34C=O)C1=CC[C@H]2c1ccc(=O)oc1` (stereo partly drawn), for which the IC50 by setting is: (GAPDH, run 1, 6 h) 3.59 µM; (PEG-3, run 1, 6 h) 1.52 µM; (PEG-3, run 1, 24 h) 7.64 µM. The IC50 result (GAPDH, run 1, 24 h) is “inactive”.
On the same counts, the results for `CS(=O)(=O)Nc1cccc(NC(=O)C2Cc3c(-c4ccccc4)ccnc3O2)c1` (stereo not drawn) are > 99 µM (inactive), > 99 µM (inactive), 5.57 µM and 4.26 µM.

Source of the values: PubChem BioAssay AID651549 (Sanford-Burnham Center for Chemical Genomics, 2012).
